The experiment deals with recombinant IL4I1 (Homo sapiens (Human), UniProt Q96RQ9). Briefly: IL4I1 Enzymatic Assay (Amplex Red/HRP coupled H2O2 detection). The format is biochemical. Conditions: 1 nM IL4I1, 1 mM each Phe/Tyr/Trp, four-hour pre-incubation, 120 minutes reaction, top compound concentration of 10000 nM. As to the method:
Interleukin 4 inducible protein 1 (IL4I1) is an L-amino oxidase that catalyzes the oxidation of aromatic residues (Phe, Trp and Tyr): L-amino acid+H2O+O2→2-oxo acid+NH3+H2O2. Equal molar of H2O2 and the corresponding alpha-ketoacid are produced when IL4I1 and substrate are added. In this assay, the hydrogen peroxide generated by IL4I1 are then detected through a coupled reaction with Amplex Red (10-acetyl-3,7-dihydroxyphenoxazine) and […] (HRP) to produce Resorufin product that could be detected in the form of fluorescence signals. The assessment of the inhibitory effect of small molecules (EC50) on IL4I1 is measured by the effectiveness of the compounds to inhibit the production of H2O2.
Using this assay, the potency (EC50) of each compound was determined from a ten-point (1:3 serial dilution; top compound concentration of 10000 nM) titration curve using the following outlined procedure. To each well of a black flat-bottom Greiner (Cat #781076) 384 well-plate, 25 nL of compound (0.1% DMSO in final assay volume of 25 μL) was dispensed, followed by the addition of 12.5 μL of 1× assay buffer (50 mM Hepes 7.0 and 0.005% Tween20 (Sigma, Cat #P8341; low peroxide grade)) containing 2 nM of recombinant IL4I1 (R&D Systems, Cat #5684-AO-020). Plates were placed in an ambient temperature humidified chamber for a four-hour pre-incubation with compound. Subsequently, each reaction was initiated by the addition of 12.5 μL 1× assay buffer containing 2 mM of each aromatic amino acids (Phe/Tyr/Trp), 0.1 mM Amplex Red and 2 U/mL of HRP. The final reaction in each well of 25 μL consists of 1 nM of IL4I1, 1 mM of each residues (Phe, Tyr and Trp), 0.05 mM Amplex Red and 1 U/mL of HRP. It should be noted that the concentrations of Amplex Red and HRP used here are in excess such that the conversion of H2O2 to Resorufin product occurs instantaneously and non-rate limiting. Reactions were allowed to proceed for 120 minutes followed by fluorescence readout on a Spectramax with the following set parameters: 544 nm excitation/590 nm emission, 570 nm cutoff (EnVision is an alternative reader). Dose-response curves were generated by plotting percent effect (% product conversion; Y-axis) vs. Log10 compound concentrations (X-axis). EC50 values were calculated using a non-linear regression, four-parameters sigmoidal dose-response model.
recombinant IL4I1, sequence (Q96RQ9 22-567): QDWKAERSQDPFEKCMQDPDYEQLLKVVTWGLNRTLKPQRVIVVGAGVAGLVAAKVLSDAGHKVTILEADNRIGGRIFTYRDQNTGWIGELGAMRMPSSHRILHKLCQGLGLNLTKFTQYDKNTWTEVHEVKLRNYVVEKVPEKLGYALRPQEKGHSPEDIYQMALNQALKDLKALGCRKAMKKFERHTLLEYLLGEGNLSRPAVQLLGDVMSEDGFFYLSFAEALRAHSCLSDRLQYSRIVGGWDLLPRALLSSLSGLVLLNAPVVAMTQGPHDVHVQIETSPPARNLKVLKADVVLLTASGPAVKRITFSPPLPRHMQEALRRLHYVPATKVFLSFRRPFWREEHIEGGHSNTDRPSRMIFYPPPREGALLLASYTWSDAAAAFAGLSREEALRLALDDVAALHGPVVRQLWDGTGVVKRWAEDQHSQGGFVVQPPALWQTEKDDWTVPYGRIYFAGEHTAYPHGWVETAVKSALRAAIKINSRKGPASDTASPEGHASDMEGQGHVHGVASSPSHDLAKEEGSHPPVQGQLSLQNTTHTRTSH
As usually defined, the EC50 is the midpoint of the concentration-response curve. As for `CC(c1nnc(Cc2cc3ccccc3[nH]c2=O)o1)C1CC1` (racemic) [Example 19, rac-3-((5-(1-cyclopropylethyl)-1,3,4-oxadiazol-2-yl)methyl)quinolin-2(1H)-one], the EC50 stood at 125 nM.

In the case of `O=C1OC(CO)CN1c1ccc(Cc2cc3ccccc3[nH]c2=O)cn1` (racemic) [Example 49, rac-5-(hydroxymethyl)-3-(5-((2-oxo-1,2-dihydroquinolin-3-yl)methyl)pyridin-2-yl)oxazolidin-2-one], the EC50 was determined as 15.6 nM.

For the compound `CC1(CO)CN(c2ccc(Cc3cc4ccccc4[nH]c3=O)cn2)C(=O)O1` (racemic) [Example 50, rac-5-(hydroxymethyl)-5-methyl-3-(5-((2-oxo-1,2-dihydroquinolin-3-yl)methyl)pyridin-2-yl)oxazolidin-2-one], the EC50 came out at 18.9 nM.

For `CC1(O)CN(c2ccc(Cc3cc4ccccc4[nH]c3=O)cn2)C(=O)O1` (racemic) [Example 51, rac-5-hydroxy-5-methyl-3-(5-((2-oxo-1,2-dihydroquinolin-3-yl)methyl)pyridin-2-yl)oxazolidin-2-one], the EC50 was 29.1 nM.

On to `O=c1[nH]c2ccccc2cc1Cc1ccc(C(O)C(F)(F)F)cc1` (racemic) [Example 126, rac-3-(4-(2,2,2-trifluoro-1-hydroxyethyl)benzyl)quinolin-2(1H)-one], for which the EC50 was found to be 2.7 nM.

On to `N#CC1(c2ccc(Cc3cc4ccccc4[nH]c3=O)cc2)CC(O)C1` (single isomer, unassigned) [Example 101A, 3-hydroxy-1-(4-((2-oxo-1,2-dihydroquinolin-3-yl)methyl)phenyl)cyclobutane-1-carbonitrile], for which the EC50 worked out at 2.6 nM.

Consider `CC(O)C(C#N)c1ccc(Cc2cc3ccccc3[nH]c2=O)cc1` (single isomer, unassigned) [Example 102A, 3-hydroxy-2-(4-((2-oxo-1,2-dihydroquinolin-3-yl)methyl)phenyl)butanenitrile], for which the EC50 was 5.2 nM.

As to `CC(O)C(C#N)c1ccc(Cc2cc3ccccc3[nH]c2=O)cc1` (single isomer, unassigned) [Example 102B, 3-hydroxy-2-(4-((2-oxo-1,2-dihydroquinolin-3-yl)methyl)phenyl)butanenitrile], the EC50 amounted to 7.8 nM.

`CC(O)C(C#N)c1ccc(Cc2cc3ccccc3[nH]c2=O)cc1` (single isomer, unassigned) [Example 102C, 3-hydroxy-2-(4-((2-oxo-1,2-dihydroquinolin-3-yl)methyl)phenyl)butanenitrile]: the EC50 turned out to be 11.8 nM.

Turning to `CC(O)C(C#N)c1ccc(Cc2cc3ccccc3[nH]c2=O)cc1` (single isomer, unassigned) [Example 102D, 3-hydroxy-2-(4-((2-oxo-1,2-dihydroquinolin-3-yl)methyl)phenyl)butanenitrile], the EC50 turned out to be 10.9 nM.

For `C[C@H]1Oc2ccc(Cc3cc4ccccc4[nH]c3=O)cc2NC1=O` (single isomer, unassigned) [Example 142A, 2-methyl-6-((2-oxo-1,2-dihydroquinolin-3-yl)methyl)-2H-benzo[b][1,4]oxazin-3(4H)-one], the EC50 amounted to 4.4 nM.

Consider `C[C@]1(c2ccc(Cc3cc4ccccc4[nH]c3=O)cc2)CCC(=O)N1` (single isomer, unassigned) [Example 183A, (S or R)-3-(4-(2-methyl-5-oxopyrrolidin-2-yl)benzyl)quinolin-2(1H)-one], for which the EC50 is 15.7 nM.

As for `CC1(c2ccc(Cc3cc4ccccc4[nH]c3=O)cc2)CCC(=O)N1` (single isomer, unassigned) [Example 183B, (R or S)-3-(4-(2-methyl-5-oxopyrrolidin-2-yl)benzyl)quinolin-2(1H)-one], the EC50 stood at 11.1 nM.

With `CS(=N)(=O)Cc1ccc(Cc2cc3ccccc3[nH]c2=O)cc1` (single isomer, unassigned) [Example 186, 3-(4-(((R or S)-methylsulfonimidoyl)methyl)benzyl)quinolin-2(1H)-one], the EC50 was 28.2 nM.

Take `CS(=N)(=O)Cc1ccc(Cc2cc3ccccc3[nH]c2=O)cc1` (single isomer, unassigned) [Example 187, 3-(4-(((S or R)-methylsulfonimidoyl)methyl)benzyl)quinolin-2(1H)-one]: the EC50 is 28.6 nM.

As to `CC1CN(c2ccc(Cc3cc4cnccc4[nH]c3=O)cc2)C(=O)O1` (single isomer, unassigned) [Example 188, (R or S)-5-methyl-3-(4-((2-oxo-1,2-dihydro-1,6-naphthyridin-3-yl)methyl)phenyl)oxazolidin-2-one], the EC50 is 12.3 nM.

As to `CC1CN(c2ccc(Cc3cc4cnccc4[nH]c3=O)cc2)C(=O)O1` (single isomer, unassigned) [Example 189, (S or R)-5-methyl-3-(4-((2-oxo-1,2-dihydro-1,6-naphthyridin-3-yl)methyl)phenyl)oxazolidin-2-one], the half-maximal effective concentration (EC50) is 16.7 nM.

As for `C[C@@](O)(c1ccc(Cc2cc3ccccc3[nH]c2=O)cc1)C(F)F` (stereo in doubt) [Example 90A, 3-(4-(1,1-difluoro-2-hydroxypropan-2-yl)benzyl)quinolin-2(1H)-one], the EC50 was determined as 9.6 nM.

Turning to `C[C@@H]1Oc2ccc(Cc3cc4ccccc4[nH]c3=O)cc2NC1=O` (stereo in doubt) [Example 142B, 2-methyl-6-((2-oxo-1,2-dihydroquinolin-3-yl)methyl)-2H-benzo[b][1,4]oxazin-3(4H)-one], the EC50 was 81.4 nM.

As for `O=c1[nH]c2ccccc2cc1Cc1ccc([C@@H]2CCNC2)cc1` [65A], the EC50 came to 7.1 nM.

Regarding `O=c1[nH]c2ccccc2cc1Cc1ccc([C@H]2CCNC2)cc1` [65B], the EC50 stood at 9 nM.

In the case of `O=C(c1ccc(Cc2cc3ccccc3[nH]c2=O)cc1)N1CC(O)C1` [Example 1, 3-(4-(3-hydroxyazetidine-1-carbonyl)benzyl)quinolin-2(1H)-one], the EC50 was 15.5 nM.

Regarding `O=c1[nH]c2ccccc2cc1Cc1nnc(-c2c(F)cccc2F)o1` [Example 3, 3-((5-(2,6-difluorophenyl)-1,3,4-oxadiazol-2-yl)methyl)quinolin-2(1H)-one], the EC50 is 2 nM.

As to `O=c1[nH]c2ccccc2cc1Cc1nnc(-c2cnn[nH]2)o1` [Example 4, 3-((5-(1H-1,2,3-triazol-5-yl)-1,3,4-oxadiazol-2-yl)methyl)quinolin-2(1H)-one], the EC50 worked out at 77.1 nM.

Turning to `O=c1[nH]c2ccccc2cc1Cc1nnc(-c2ccccc2)o1` [Example 5, 3-((5-phenyl-1,3,4-oxadiazol-2-yl)methyl)quinolin-2(1H)-one], the EC50 was determined as 42 nM.

As to `O=c1[nH]c2ccccc2cc1Cc1nnc(-c2cn[nH]c2)o1` [Example 6, 3-((5-(1H-pyrazol-4-yl)-1,3,4-oxadiazol-2-yl)methyl)quinolin-2(1H)-one], the EC50 stood at 2.8 nM.

For `O=c1[nH]c2ccccc2cc1Cc1nnc(-c2ccc(C(F)(F)F)cc2)o1` [Example 7, 3-((5-(4-(trifluoromethyl)phenyl)-1,3,4-oxadiazol-2-yl)methyl)quinolin-2(1H)-one], the EC50 was 82.2 nM.

As for `O=c1[nH]c2ccccc2cc1Cc1nnc(Cc2ccccc2F)o1` [Example 8, 3-((5-(2-fluorobenzyl)-1,3,4-oxadiazol-2-yl)methyl)quinolin-2(1H)-one], the EC50 is 12.8 nM.

In the case of `O=c1[nH]c2ccccc2cc1Cc1nnc(C2CCCCC2)o1` [Example 9, 3-((5-cyclohexyl-1,3,4-oxadiazol-2-yl)methyl)quinolin-2(1H)-one], the EC50 was 51.1 nM.

For the origin of these results see patent publication US20240287022A1 (Merck Sharp & Dohme LLC, priority 2021, published 2024).
